Key:
[1] = tested on: Eschericia coli (E. Coli) strain ATCC25922; experiment: standard microdilution assay, minimum inhibitory concentration (MIC); format: cell-based; conditions: Escherichia coli; Table 2; strain ATCC25922
Description: (§1) The in vitro activity of the compounds of the present disclosure can be determined. Antimicrobial testing is typically performed to determine the minimum inhibitory concentration (MIC). Minimum inhibitory concentrations (MICs) are determined by the microdilution method in a final volume of 100 μl according to protocols outlined by The Clinical and Laboratory Standards Institute (CLSI). Performance standards for reference strains are assessed within the same experimental design to maintain quality control. See, for example, Clinical Laboratory Standards Institute: Methods for dilution antimicrobial susceptibility tests for bacteria that grow aerobically M7-A8. Approved Standard-Eighth Edition. Wayne, Pa.: CLSI; December 2008; and Clinical Laboratory Standards Institute: Performance Standards for Antimicrobial Susceptibility Testing M100-S20; Approved Standard-Twentieth Edition. Wayne, Pa.: CLSI; June 2010. The compounds of the present disclosure were tested for antimicrobial activity. The Compounds 1-149 were run against Eschericia coli (E. Coli) strain ATCC25922 and against Staphylococcus aureus (S. aureus) 11540 strain using a standard microdilution assay to determine minimum inhibitory concentrations (MICs). […] It will be recognized by one skilled in the art that the compounds can be assessed against other bacterial organisms and that the presentation of data for activity against Eschericia coli and Staphylococcus aureus are illustrative and in no way is intended to limit the scope of the present disclosure. The compounds of the present disclosure can be assayed against a range of other microorganisms depending upon the performance activity desired to be gathered. Furthermore, the “+” and “−” representation and the selection of a cutoff value of 16 micrograms/mL is also illustrative and in no way is intended to limit the scope of the present disclosure.

[2] = tested on: Staphylococcus aureus (S. aureus) 11540 strain; experiment: as above; format: cell-based; conditions: Table 2, 11540 strain
Description: as §1

Row | MIC [1] [µg/mL] | MIC [2] [µg/mL] | Structure (SMILES)
1 | ≤ 16 | ≤ 16 | C[C@H](N)CCCc1cc(Cl)c(F)c(-c2cc3cn(-c4ccc(CN[C@H](CCNC(=N)N)CNc5nc6ccccc6[nH]5)cc4)c(=O)nc3[nH]2)c1 [Compound 37]
2 | ≤ 16 | ≤ 16 | C[C@H](N)CCCc1cc(Cl)c(F)c(-c2cc3cn(-c4ccc(CN[C@H](CCNC(=N)N)CNc5ncns5)cc4)c(=O)nc3[nH]2)c1 [Compound 38]
3 | ≤ 16 | ≤ 16 | COc1ccc(NC[C@@H](CCNC(=N)N)NCc2ccc(-n3cc4cc(-c5cc(CCC[C@H](C)N)cc(Cl)c5F)[nH]c4nc3=O)cc2)nn1 [Compound 39]
4 | ≤ 16 | ≤ 16 | C[C@H](N)CCCc1cc(Cl)c(F)c(-c2cc3cn(-c4ccc(CN[C@H](CCNC(=N)N)CNc5ccc(=O)[nH]n5)cc4)c(=O)nc3[nH]2)c1 [Compound 40]
5 | ≤ 16 | ≤ 16 | Cc1nc(NCC[C@H]2CCC[C@H](c3ccc(-n4cc5cc(-c6cc(CCC[C@H](C)N)cc(Cl)c6F)[nH]c5nc4=O)cc3)N2)[nH]c1C [Compound 41]
6 | ≤ 16 | ≤ 16 | Cc1nc(NCC[C@@H]2CCC[C@@H](c3ccc(-n4cc5cc(-c6cc(CCC[C@H](C)N)cc(OC(F)(F)F)c6F)[nH]c5nc4=O)cc3)N2)[nH]c1C [Compound 42]
7 | ≤ 16 | ≤ 16 | C[C@H](N)CCCc1cc(Cl)c(F)c(-c2cc3cn(-c4ccc([C@@H]5CCC[C@@H](CCNc6nc7ccccc7[nH]6)N5)cc4)c(=O)nc3[nH]2)c1 [Compound 43]
8 | ≤ 16 | ≤ 16 | C[C@H](N)CCCc1cc(Cl)c(F)c(-c2cc3cn(-c4ccc([C@H]5CCC[C@H](CCNc6nc7ccccc7[nH]6)N5)cc4)c(=O)nc3[nH]2)c1 [Compound 44]
9 | ≤ 16 | ≤ 16 | C[C@H](N)CCCc1cc(Cl)c(F)c(-c2cc3cn(-c4ccc(CN[C@H](CCNC(=N)N)Cc5ncon5)cc4)c(=O)nc3[nH]2)c1 [Compound 45]
10 | ≤ 16 | ≤ 16 | C[C@H](N)CCCc1cc(Cl)c(F)c(-c2cc3cn(-c4ccc(CN[C@H](CCNC(=N)N)CNc5cc(=O)cc[nH]5)cc4)c(=O)nc3[nH]2)c1 [Compound 46]
11 | ≤ 16 | ≤ 16 | COc1ccnc(NC[C@@H](CCNC(=N)N)NCc2ccc(-n3cc4cc(-c5cc(CCC[C@H](C)N)cc(Cl)c5F)[nH]c4nc3=O)cc2)c1 [Compound 47]
12 | ≤ 16 | ≤ 16 | C[C@H](N)CCCc1cc(Cl)c(F)c(-c2cc3cn(-c4ccc(CN[C@H](CCNC(=N)N)CNc5cnccn5)cc4)c(=O)nc3[nH]2)c1 [Compound 48]
13 | ≤ 16 | ≤ 16 | C[C@H](N)CCCc1cc(Cl)c(F)c(-c2cc3cn(-c4ccc(CN[C@H](CCNC(=N)N)CNc5nnn[nH]5)cc4)c(=O)nc3[nH]2)c1 [Compound 49]
14 | ≤ 16 | ≤ 16 | Cc1nc(NC[C@@H](CCNC(=N)N)NCc2ccc(-n3cc4cc(-c5cc(CCC[C@H](C)N)cc(Cl)c5F)[nH]c4nc3=O)cc2)sc1C [Compound 50]
15 | ≤ 16 | ≤ 16 | Cc1nnc(NC[C@@H](CCNC(=N)N)NCc2ccc(-n3cc4cc(-c5cc(CCC[C@H](C)N)cc(Cl)c5F)[nH]c4nc3=O)cc2)o1 [Compound 51]
16 | ≤ 16 | ≤ 16 | Cc1nc(NCC[C@H]2CCC[C@H](c3ccc(-n4cc5cc(-c6cc(CCC[C@H](C)N)cc(OC(F)(F)F)c6F)[nH]c5nc4=O)cc3)N2)[nH]c1C [Compound 53]
17 | ≤ 16 | ≤ 16 | C[C@H](N)CCCc1cc(Cl)c(F)c(-c2cc3cn(-c4ccc(CN[C@H](CCNC(=N)N)CNc5cccnc5)cc4)c(=O)nc3[nH]2)c1 [Compound 54]
18 | ≤ 16 | ≤ 16 | Cc1nnc(NC[C@@H](CCNC(=N)N)NCc2ccc(-n3cc4cc(-c5cc(CCC[C@H](C)N)cc(Cl)c5F)[nH]c4nc3=O)cc2)[nH]1 [Compound 55]
19 | ≤ 16 | ≤ 16 | C[C@H](N)CCCc1cc(Cl)c(F)c(-c2cc3cn(-c4ccc(CN[C@H](CCNC(=N)N)CNc5nc6cnccc6o5)cc4)c(=O)nc3[nH]2)c1 [Compound 56]
20 | ≤ 16 | ≤ 16 | C[C@H](N)CCCc1cc(Cl)c(F)c(-c2cc3cn(-c4ccc(CN[C@@H](CCN)CCNC(=N)N)cc4)c(=O)nc3[nH]2)c1 [Compound 57]
21 | ≤ 16 | ≤ 16 | C[C@H](N)CCCc1cc(Cl)c(F)c(-c2cc3cn(-c4ccc(CN[C@H](CCNC(=N)N)CNc5ccncc5)cc4)c(=O)nc3[nH]2)c1 [Compound 58]
22 | ≤ 16 | ≤ 16 | C[C@H](N)CCCc1cc(Cl)c(F)c(-c2cc3cn(-c4ccc(CO[C@H](CO)CCNC(=N)N)cc4)c(=O)nc3[nH]2)c1 [Compound 59]

Row | MIC [1] [µg/mL] | MIC [2] [µg/mL] | Structure (SMILES)
23 | ≤ 16 | ≤ 16 | C[C@H](N)CCCc1cc(Cl)c(F)c(-c2cc3cn(-c4ccc(CO[C@@H](CCNC(=N)N)CNc5nccs5)cc4)c(=O)nc3[nH]2)c1 [Compound 60]
24 | ≤ 16 | ≤ 16 | C[C@H](N)CCCc1cc(Cl)c(F)c(-c2cc3cn(-c4ccc(CN[C@H](CCNC(=N)N)CC(N)=O)cc4)c(=O)nc3[nH]2)c1 [Compound 61]
25 | ≤ 16 | ≤ 16 | C[C@H](N)CCCc1cc(Cl)c(F)c(-c2cc3cn(-c4ccc(CN[C@H](CCNC(=N)N)CNc5ccc[nH]c5=O)cc4)c(=O)nc3[nH]2)c1 [Compound 62]
26 | ≤ 16 | ≤ 16 | COc1ncccc1NC[C@@H](CCNC(=N)N)NCc1ccc(-n2cc3cc(-c4cc(CCC[C@H](C)N)cc(Cl)c4F)[nH]c3nc2=O)cc1 [Compound 63]
27 | ≤ 16 | ≤ 16 | C[C@H](N)CCCc1cc(Cl)c(F)c(-c2cc3cn(-c4ccc(CO[C@H](CCNC(=N)N)CNC(=N)N)cc4)c(=O)nc3[nH]2)c1 [Compound 64]
28 | ≤ 16 | ≤ 16 | Cc1ccncc1NC[C@@H](CCNC(=N)N)NCc1ccc(-n2cc3cc(-c4cc(CCC[C@H](C)N)cc(Cl)c4F)[nH]c3nc2=O)cc1 [Compound 65]
29 | ≤ 16 | ≤ 16 | C[C@H](N)CCCc1cc(Cl)c(F)c(-c2cc3cn(-c4ccc(CO[C@@H](C)CCNC(=N)N)cc4)c(=O)nc3[nH]2)c1 [Compound 66]
30 | ≤ 16 | ≤ 16 | CC(=N)NC[C@@H](CCNC(=N)N)NCc1ccc(-n2cc3cc(-c4cc(CCC[C@H](C)N)cc(Cl)c4F)[nH]c3nc2=O)cc1 [Compound 67]
31 | ≤ 16 | ≤ 16 | C[C@H](N)CCCc1cc(Cl)c(F)c(-c2cc3cn(-c4ccc(CO[C@@H](CN)CCNC(=N)N)cc4)c(=O)nc3[nH]2)c1 [Compound 68]
32 | ≤ 16 | ≤ 16 | C[C@H](N)CCCc1cc(Cl)c(F)c(-c2cc3cn(-c4ccc([C@@H]5CC[C@@H](CNC(=N)N)O5)cc4)c(=O)nc3[nH]2)c1 [Compound 69]
33 | ≤ 16 | ≤ 16 | C[C@H](N)CCCc1cc(Cl)c(F)c(-c2cc3cn(-c4ccc([C@@H]5CC[C@H](CNC(=N)N)O5)cc4)c(=O)nc3[nH]2)c1 [Compound 70]
34 | ≤ 16 | ≤ 16 | C[C@H](N)CCCc1cc(Cl)c(F)c(-c2cc3cn(-c4ccc(CO[C@@H](CO)CCNC(=N)N)cc4)c(=O)nc3[nH]2)c1 [Compound 71]
35 | ≤ 16 | ≤ 16 | CC(=N)NCC[C@H](CO)OCc1ccc(-n2cc3cc(-c4cc(CCC[C@H](C)N)cc(Cl)c4F)[nH]c3nc2=O)cc1 [Compound 72]
36 | ≤ 16 | ≤ 16 | C[C@H](N)CCCc1cc(Cl)c(F)c(-c2cc3cn(-c4ccc([C@H]5CC[C@@H](CCNC(=N)N)O5)cc4)c(=O)nc3[nH]2)c1 [Compound 73]
37 | ≤ 16 | ≤ 16 | C[C@H](N)CCCc1cc(Cl)c(F)c(-c2cc3cn(-c4ccc([C@H]5CC[C@H](CCNC(=N)N)O5)cc4)c(=O)nc3[nH]2)c1 [Compound 74]
38 | ≤ 16 | ≤ 16 | C[C@H](N)CCCc1cc(Cl)c(F)c(-c2cc3cn(-c4ccc(CO[C@H](CCNC(=N)N)CNc5ccccn5)cc4)c(=O)nc3[nH]2)c1 [Compound 75]
39 | ≤ 16 | ≤ 16 | C[C@H](N)CCCc1cc(Cl)c(F)c(-c2cc3cn(-c4ccc(CO[C@H](CCNC(=N)N)CNc5ncc[nH]5)cc4)c(=O)nc3[nH]2)c1 [Compound 76]
40 | ≤ 16 | ≤ 16 | CC1=NC[C@@H](CCNC(=N)N)N1Cc1ccc(-n2cc3cc(-c4cc(CCC[C@H](C)N)cc(Cl)c4F)[nH]c3nc2=O)cc1 [Compound 77]
41 | ≤ 16 | ≤ 16 | C=C[C@H]1C[C@@H](CCNC(=N)N)O[C@H](c2ccc(-n3cc4cc(-c5cc(CCC[C@H](C)N)cc(Cl)c5F)[nH]c4nc3=O)cc2)C1 [Compound 78]
42 | > 16 | > 16 | C=C[C@H]1C[C@@H](CCNC(=N)N)O[C@H](c2ccc(-n3cc4cc(C5CCNC5)[nH]c4nc3=O)cc2)C1 (stereo partly shown) [Compound 79]
43 | > 16 | > 16 | C=C[C@H]1C[C@@H](CCNC(=N)N)O[C@H](c2ccc(-n3cc4cc(C5CCN(C(=N)N)C5)[nH]c4nc3=O)cc2)C1 (stereo partly shown) [Compound 80]
44 | ≤ 16 | ≤ 16 | CCC(=N)NCC[C@@H]1CCC[C@@H](c2ccc(-n3cc4cc(-c5cc(CCC[C@H](C)N)cc(Cl)c5F)[nH]c4nc3=O)cc2)N1 [Compound 81]

From patent US10947237B2, “Antimicrobial compounds and methods of making and using the same” (BIOVERSYS AG, priority 2015, dated 2021)
